{
  "source": "patent US20060062797A1",
  "about": "“Novel materials and methods for the treatment of Alzheimer's disease patients” (The Research Foundation of State University of New York at …, priority 2004, published 2006)",
  "key": {"[1]": {"assay": "Neurotoxicity of inhibitor peptides alone in neuronal cell culture (cell count)", "assay_type": "cell-based", "conditions": "neuronal cell culture, 48 Hour Incubation, read-out: % Survival", "protocol": "(§1) An in vitro neuronal cell culture was grown to confluence and studied by cell count as a measure of neurotoxicity. Neurotoxicity was observed following one or two days of incubation with either polymerized Aβ1-42 peptide into amyloid fibrils (ag) or free (i.e., non-polymerized) Aβ1-42 peptides (sol). (See FIG. 9)."}, "[2]": {"test_system": "in vitro neuronal cell culture", "assay": "Neurotoxicity of inhibitor peptides alone in neuronal cell culture (cell count)", "assay_type": "cell-based", "conditions": "peptide alone", "protocol": "as §1"}, "[3]": {"test_system": "Aβ1-42 peptide induced neurotoxicity in neuronal cell culture", "assay": "Protection against Aβ1-42 peptide induced neurotoxicity in neuronal cell culture", "assay_type": "cell-based", "conditions": "for inhibition of Aβ1-42 peptide induced neurotoxicity: 1:10 and 1:20; for reduction of Aβ1-42 neurotoxicity: added before Aβ1-42 peptides were allowed to polymerize; for amyloid plaque inhibition activity with protected termini: N- or C-terminal protected or both protected, data not shown", "protocol": "These peptides were tested in cell toxicity assays for their ability to prevent cell death (i.e., for example, by apoptotic mechanisms) induced by the Aβ1-42 peptide (SEQ ID NO:157).\nas §1\n(See FIG. 11A). […] (See FIG. 11B)."}, "Aβ1-42 peptide [4]": {"target": "T1, Aβ1-42 peptide (Homo sapiens, UniProt P05067)", "T1 sequence (P05067 672-713)": "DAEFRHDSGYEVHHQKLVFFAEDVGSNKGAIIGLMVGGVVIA", "conditions": "Soto et al. 1996, 1998; cited from earlier work"}, "Aβ1-42 peptides": {"target": "Aβ1-42 peptides (Homo sapiens, UniProt P05067)", "sequence (P05067 672-713)": "as above", "assay": "Electron microscopy of Aβ1-42 fibril formation in presence of inhibitor protein", "assay_type": "biochemical", "conditions": "equimolar ratio with 13C-labeled Aβ1-42 peptides; images over two weeks", "protocol": "(§2) The amyloid fibril inhibitor protein (SEQ ID NO: 1) was incubated at an equimolar ratio with ^13C-labeled Aβ1-42 peptides. During this incubation, electron microscopic images were taken over the course of two weeks in accordance with Example 6. […] In fact, suspensions of Aβ1-42 protein (SEQ ID NO: 157) prepared at pH 7 were normally cloudy and formed gels during fibril growth.\nFibrillized amyloid samples were prepared by incubation of aqueous solutions at an Aβ1-42 peptide concentration of approximately 0.2 mM in 1.0 mM phosphate buffer at pH 7.0 with the pH adjusted as necessary by dropwise addition of dilute NaOH or acetic acid. 0.01% NaN3 was added to inhibit bacterial and fungal growth. The solution was incubated for approximately 10 days at a temperature of 24° C., with gentle rocking (200 rpm). Aliquots of incubated solutions were taken for electron microscopic observations after 3-5 days. Amyloid fibril formation was verified by electron microscopic images of negatively stained samples.\nFor electron microscopic analysis, a 5 μL sample of the amyloid fibril was placed on a carbon coated Foamvar 200 mesh copper grid. The sample was allowed to stand for 15-30 sec and any excess solution was removed by wicking away. The samples were negatively stained with 2% (w/v) uranyl acetate. The excess was wicked away and allowed to dry. […]"}, "[5]": {"target": "Aβ1-42 protein (SEQ ID NO: 157) (Homo sapiens, UniProt P05067)", "sequence (P05067 672-713)": "as above", "assay": "Appearance (clearing, gel formation) of Aβ1-42 suspensions at pH 7", "assay_type": "biochemical", "protocol": "as §2"}, "GpA70-86 fibrils": {"target": "T2, GpA70-86 fibrils (Homo sapiens, UniProt P02724)", "T2 construct": "comprising a 17 amino acid peptide corresponding to amino acid residues 70-86", "assay": "Glycophorin A transmembrane peptide (GpA70-86) fibril formation, solid-state NMR", "assay_type": "biochemical", "conditions": "for ability to inhibit amyloid fibril formation: \"this assay system\" of Example 2", "protocol": "In the experiments below, magic-angle-spinning (MAS) NMR was performed at 360 and 600 MHz on Bruker Avance NMR spectrometers using 4 mm MAS rotors. The cross polarization contact time was 2 ms, two-pulse phase-modulated (TPPM) decoupling was used during the evolution and mixing periods and the dipolar-assisted rotational-resonance (DARR) mixing time was 1 sec. The proton field strength was set to the n =1 rotational resonance condition during the mixing period. Takegoshi et al., “^13C-^1H Dipolar-Driven ^13C-^13C Recoupling Without ^13C RF Irradiation In Nuclear Magnetic Resonance Of Rotating Solids” J. Chem. Phys. 118:2325-2341 (2003). DARR gives rise to off-diagonal cross peaks in the 2D NMR spectra if the ^13C . . . ^13C contacts are less than 6 A apart.\nThis experiment tested the idea that the large side chain amino acids on one sheet dovetail into the grooves formed by glycine on an opposing β-sheet using a mixture of two differently labeled pools of GpA70-86 peptide. A first set of peptides were labeled with a single ^13C isotope label at the backbone carbonyl carbon of Gly^79. A second set of peptides were ^13C -labeled at the Met^81 methyl side chain group. Computer modeling of the GpA70-86 peptide β-sandwich predicted an inter-β-sheet distance of 3-5 Å between the carbonyl ^13C of Gly^79 and the ^13CH3 of Met^81. The intra-sheet distance, however, was predicted to be ˜8-10 Å, and outside of the detection range of the NMR experiment used. Solid-state NMR techniques measured the intermolecular distance between Met^81 13C-labeled methyl side chains and the carbonyl ^13C-Gly^79 on adjacent β-sheets.\nA truncated […], that mimics Aβ1-42 protein, was incubated with a glycine-rich transmembrane peptide (i.e., similar to APP). This target peptide corresponds to glycophorin A's transmembrane domain comprising a 17 amino acid peptide corresponding to amino acid residues 70-86. Glycophorin A, as a complete protein, is not known to form amyloid-like fibrils."}, "Aβ1-42 peptide [6]": {"target": "T1, Aβ1-42 peptide", "assay": "Fluorescence thioflavin T assay of amyloid fibrillization", "assay_type": "biochemical", "protocol": "Amyloid fibrillization was measured by the fluorescence thioflavin T assay. Levine III, H, Methods in Enzymology 309: 274-305 (1999). The Aβ1-42 peptide was dissolved and fibrillization was followed over the course of two weeks by monitoring thioflavin T fluorescence. Hou et al., J. Am. Chem. Soc. in press (2004).\nThe effect of the inhibitor plateaus after three days and shown to be 70%±5 % effective in preventing fibrillization.\nInhibition activities were also measured by fluorescence intensity over time at the following molar ratios of Aβ1-42 peptide to SEQ ID NO:1 (I1) 1:0; 1:1; 1:5; and 1:20. (FIG. 7). […] Soto, et al., Nature Medicine 4:822-826 (1998); and Soto et al., Biochem. Biophys. Res. Comm. 226:672-680 (1996)."}, "[7]": {"target": "Preformed amyloid fibrils comprising Aβ1-42 peptides (Homo sapiens, UniProt P05067)", "sequence (P05067 672-713)": "as above", "assay": "Depolymerization of preformed amyloid fibrils (fluorescence intensity)", "assay_type": "biochemical", "conditions": "1:20 molar ratio; for depolymerization of pre-existing Aβ1-42 fibrils (words): FIG. 8", "protocol": "Preformed amyloid fibrils comprising Aβ1-42 peptides were incubated with and without SEQ ID NO: 1 (I1) a 1:20 molar ratio."}, "[8]": {"conditions": "24 hours of polymerization / 24 hour incubation, FIG. 10A, 10B"}},
  "note": "Like-named read-outs stand apart in the source and are kept apart here. No end group written: not given here.",
  "data": [
    {"substance": "H-LPFFD-NH2 [SEQ ID NO: 160, NH2-LPFFD-NH2, reference compound]", "values": [
      {"measurement": "viability at 48 h", "setting": "[1]; 10X", "value": "97.9 ± 4.2", "unit": "%"},
      {"measurement": "viability at 48 h", "setting": "[1]; 20X", "value": "97.8 ± 6.6", "unit": "%"},
      {"measurement": "toxicity of peptide by itself to neuronal cell culture", "setting": "[2]", "value": "not toxic by themselves"},
      {"measurement": "toxicity of peptide by itself to neuronal cell culture", "setting": "[2]; listed as I6", "value": "not present"},
      {"measurement": "inhibition of Aβ1-42 peptide induced neurotoxicity", "setting": "[3]; [8]", "value": "Neither SEQ ID NO: 1 or SEQ ID NO: 160 reduced neurotoxicity"},
      {"measurement": "inhibition of Aβ1-42 peptide induced neurotoxicity", "setting": "[3]; 24 hours of polymerization / 24 hour incubation, FIG. 10A, 10B, listed as SEQ ID NO:160", "value": "does not inhibit"},
      {"measurement": "inhibition of Aβ1-42 peptide induced neurotoxicity", "setting": "[3]; 48 hours of polymerization / 48 hour incubation, FIG. 10C, 10D, listed as SEQ ID NO:160", "value": "does not inhibit"},
      {"measurement": "reduction of Aβ1-42 neurotoxicity", "setting": "[3]", "value": "Neither SEQ ID NO: 1 or SEQ ID NO: 160 reduced neurotoxicity"},
      {"measurement": "reported inhibitor activity (literature)", "setting": "Aβ1-42 peptide [4]", "value": "effective inhibitor"}
    ]},
    {"substance": "H-RGTFEGKF-NH2 [SEQ ID NO: 1]", "values": [
      {"measurement": "fibrils in electron microscopic images", "setting": "Aβ1-42 peptides", "value": "no detectable fibrils"},
      {"measurement": "gel formation of Aβ1-42 suspensions", "setting": "[5]; pH 7, over a two week period or longer", "value": "did not form gel compositions"},
      {"measurement": "time until Aβ1-42 suspensions became clear after addition", "setting": "[5]; suspensions prepared at pH 7", "value": "less than 5 seconds"},
      {"measurement": "glycophorin A transmembrane peptide fibril formation", "setting": "GpA70-86 fibrils; 1:1 molar ratio", "value": "can be blocked"},
      {"measurement": "ability to inhibit amyloid fibril formation", "setting": "GpA70-86 fibrils", "value": "most effective"},
      {"measurement": "NMR cross peak between Met81 and Gly79 of GpA70-86 fibrils", "setting": "GpA70-86 fibrils; equimolar amount of inhibitor, FIG. 4D", "value": "absent"},
      {"measurement": "inhibition of Aβ1-42 fibrillization / amyloid fibril polymerization (words)", "setting": "Aβ1-42 peptide [6]; FIG. 6, FIG. 7", "value": "inhibits amyloid fibril polymerization in a time and dose-dependent manner"},
      {"measurement": "inhibition of Aβ1-42 fibrillization / amyloid fibril polymerization (words)", "setting": "Aβ1-42 peptide [6]; FIG. 6, FIG. 7, listed as SEQ ID NO:1", "value": "inhibits fibrillization"},
      {"measurement": "depolymerization of pre-existing Aβ1-42 fibrils (words)", "setting": "[7]", "value": "depolymerizes pre-existing amyloid fibrils"},
      {"measurement": "depolymerization of pre-existing Aβ1-42 fibrils (words)", "setting": "[7]; listed as SEQ ID NO:1", "value": "depolymerizes Aβ1-42 fibrils"},
      {"measurement": "depolymerization rate and polymerization rate", "setting": "[7]; after Day 4", "value": "apparently reaches equilibrium"},
      {"measurement": "depolymerization rate", "setting": "[7]; first four incubation days", "value": "apparent linear depolymerization rate"},
      {"measurement": "viability at 48 h", "setting": "[1]; 10X", "value": "91.7 ± 5.6", "unit": "%"},
      {"measurement": "viability at 48 h", "setting": "[1]; 20X", "value": "90.5 ± 6.4", "unit": "%"},
      {"measurement": "toxicity of peptide by itself to neuronal cell culture", "setting": "[2]", "value": "not toxic by themselves"},
      {"measurement": "toxicity of peptide by itself to neuronal cell culture", "setting": "[2]; listed as I1", "value": "not present"},
      {"measurement": "inhibition of Aβ1-42 peptide induced neurotoxicity", "setting": "[3]; [8]", "value": "Neither SEQ ID NO: 1 or SEQ ID NO: 160 reduced neurotoxicity"},
      {"measurement": "inhibition of Aβ1-42 peptide induced neurotoxicity", "setting": "[3]; 24 hours of polymerization / 24 hour incubation, FIG. 10A, 10B, listed as SEQ ID NO:1", "value": "does not inhibit"},
      {"measurement": "inhibition of Aβ1-42 peptide induced neurotoxicity", "setting": "[3]; 48 hours of polymerization / 48 hour incubation, FIG. 10C, 10D", "value": "dose-dependently inhibited neurotoxicity"},
      {"measurement": "inhibition of Aβ1-42 peptide induced neurotoxicity", "setting": "[3]; 48 hours of polymerization / 48 hour incubation, FIG. 10C, 10D, listed as SEQ ID NO:1", "value": "does inhibit"},
      {"measurement": "amyloid plaque inhibition activity with protected termini", "setting": "[3]", "value": "retain amyloid plaque inhibition activity"},
      {"measurement": "reduction of Aβ1-42 neurotoxicity", "setting": "[3]", "value": "Neither SEQ ID NO: 1 or SEQ ID NO: 160 reduced neurotoxicity"}
    ]},
    {"substance": "RATFEAKF-NH2 [SEQ ID NO: 19]", "values": [
      {"measurement": "ability to inhibit amyloid fibril formation", "setting": "GpA70-86 fibrils", "value": "most effective"},
      {"measurement": "amyloid plaque inhibition activity with protected termini", "setting": "[3]", "value": "retain amyloid plaque inhibition activity"}
    ]}
  ]
}
